Where no end group is shown, it is not given here.
How the values were obtained:
[1] = test system: FN1 cells; assay: Detection of intracellular reactive oxygen and nitrogen species (ROS); format: cell-based, human; details: for ROS production: serum-deprived (1% FBS)
Description: The detection of reactive species was performed by the ROS Detection Kit (Enzo Life Sciences, Plymouth Meeting, Pa.) according to the manufacturer's instructions. This assay allows detecting ROS production in living cells by flow cytometry. The dye detection reagent reacts with hydrogen peroxide, peroxynitrite and hydroxyl radicals. FN1 cells at a density of 10^6/ml were plated and cultured in 6-well plates for 24 hours in incubator containing 5% CO2 at 37° C. […] Then, the cells were washed with wash buffer supplied by the manufacturer and centrifuged at 1500 rpm for 10 minutes. The supernatant was discarded and the cell button resuspended in 200 μl of PBS. The fluorescence was determined at λ=485 nm for excitation and emission λ=590 nm for a FACScalibur™ flow cytometry system using CellQuest™ software with the acquisition of 10,000 events having as parameters FSC (size) and SSC (granularity/complexity) linear scale and FL1/FL2 on logarithmic scales. The results were expressed as the mean±SEM (standard error of the mean) of 3 independent experiments.

[2] = test system: laminin; assay: Extracellular matrix molecules by fluorescence microscopy; format: cell-based, human; details: FN1 cells, 50 ng/ml, 48 h, 10% FBS
Text: (§1) Previous studies have reported the importance of extracellular matrix components for maintaining cell survival of serum-deprived cells and that survival is enhanced by cell-cell contact. To confirm the synthesis of extracellular matrix molecules, fibroblast cultures were marked with antibodies specific for laminin and fibronectin following treatment with the synthetic peptide.
(§2) After treatment, the medium was removed and cells were washed with PBS and fixed with 3.7% paraformaldehyde for 10 minutes. Triton X-100 (0.1%) was added for 15 minutes for permeabilization of the plasma membrane, followed by addition of the primary antibody and incubation for 12 hours (overnight) in the dark at 4° C. The cells were washed with PBS, the secondary antibody was added and the cells were kept for 1 hour at room temperature in the dark. Antibodies were diluted according to the manufacturer's recommendation. After washing, the […] cell nuclei were stained with 4′,6-diamidino-2-phenylindole (DAPI) reagent (Invitrogen) and slides were mounted on coverslips containing 4 μl of antifade solution (Vectashield™, Vector-H1000, that serves to preserve fluorescence). Cells were viewed with an Axio™ Imager A1 fluorescence microscope (Carl Zeiss, Germany).
(§3) Primary antibodies in blocking buffer: 10% FBS, 1% BSA in TBS (0.1% Triton X-100 in PBS):
Rabbit polyclonal to Laminin alpha 4 (abcam): 1/500

[3] = test system: fibronectin; assay: as above; format: cell-based, human; details: FN1 cells, 50 ng/ml, 48 h, 10% FBS
Text: as §1, §2, §3
Rabbit polyclonal to Fibronectin (abcam): 2 μg/ml

[4] = test system: vitronectin; assay: as above; format: cell-based, human; details: FN1 cells, 50 ng/ml, 48 h, 10% FBS
Text: as §1, §2, §3
Mouse monoclonal [VN58-1] […]

[5] = test system: Human umbilical vein endothelial cells (HUVEC); assay: MTT cytotoxicity and cell viability assay; format: cell-based; details: 72 h; for cell viability (MTT), significance relative to untreated control (1% FBS): p<0.01
Description: For in vitro cell culture tests, the peptide (previously dissolved in water and stored at −20° C.) was resuspended, at the desired concentration, in culture medium supplemented with fetal bovine serum (FBS). The concentration of FBS was selected depending on the requirements of each experiment.
The MTT method was used (Mosmann, T., Rapid colorimetric assay for cellular growth and survival: application to proliferation and cytotoxicity assays. J Immunol Methods, 1983. 65(1-2): p. 55-63). The viability test was performed in culture plates of 96 wells. […] After 72 h, the supernatant was discarded and the cells washed twice with phosphate buffered saline (PBS) at pH 7.4 and incubated at 37° C. for 3 h with 100 μl of 0.5 mg/ml MTT reagent (3-(4,5-dimethylthiazol-2-yl)-2,5-diphenyl tetrazolium bromide) in PBS. The supernatant was removed and the reaction was stopped with 100 μl of dimethyl sulfoxide (DMSO). Absorbance values were determined at 540 nm using a SpectraMax™ 190 automatic plate reader (Molecular Devices, USA).
The results were expressed as a percentage of cell viability relative to the untreated control at time zero (initial number of cells). Absorbance values were determined at 540 nm. The results were expressed as the average ±standard error of the mean (SEM) of 5 independent experiments. Statistical significance between the groups were determined by a one-way ANOVA test (*: p<0.05, **: p<0.01).

[6] = test system: human dermal fibroblasts (FN1); assay: Cell proliferation by CFDA-SE staining, flow cytometry; format: cell-based; details: FN1 cells; for proliferation / cytoprotection (CFDA-SE staining): 1% FBS, 48 hours; for proliferation rate (CFDA-SE staining): 10% FBS, 48 h, p<0.001 versus control 10% FBS
Description: Quantitative assessment of cell proliferation was performed by staining cells with carboxyfluorescein succinimidyl ester (CFDA-SE), as described previously (Asquith, B., et al., Quantifying lymphocyte kinetics in vivo using carboxyfluorescein diacetate succinimidyl ester (CFSE). Proc Biol Sci, 2006. 273(1590): p. 1165-71; Lyons, A. B., Analysing cell division in vivo and in vitro using flow cytometric measurement of CFSE dye dilution. J Immunol Methods, 2000. 243(1-2): p. 147-54). CFDA-SE is a lipophilic dye which reacts with amino groups of peptides and proteins, forming a stable amide linkage, which can be detected using flow cytometry analysis. The CFDA-SE passively diffuses into cells. It is colorless and nonfluorescent until its acetate groups are cleaved by intracellular esterases to produce a highly fluorescent, amine reactive succinimidyl ester of carboxyfluorescein, which is well conserved and can be fixed with aldehyde fixatives. The excess reagent and unconjugated by products passively diffuse into the extracellular environment where they can be washed away. When parent cells divide, CFDA-SE dye is equally distributed to the daughter cells, which therefore have half of the fluorescence intensity of the parents. The reduction of fluorescence intensity of cell generations in cell proliferation is easily detected by flow cytometry.
For the assay, human dermal fibroblasts (FN1) cells were seeded in six-well plates (1×10^4 cells/well), incubated with […] CFDA—SE diluted in PBS, and cultured at 37° C. with 5% CO2 for 15 minutes protected from light, according to the manufacturer's instructions (Vybrant® CFDA SE Cell Tracer Kit, MolecularProbes). […] Subsequently, the cells were trypsinized and the cell buttons resuspended in 300 μl of FACS buffer with 2% paraformaldehyde and kept in the refrigerator until the moment of reading. Cell proliferation by CFDA—SE was estimated by the reduction in cell fluorescence. Fluorescence was determined for excitation at λ=492 nm and for emission at λ=517 nm (10000 events per sample) in a FACScalibur™ flow cytometry system (Becton and Dickson) using the CellQuest™ software. The parameters FSC (size) and SSC (granularity/complexity) was detected in linear scale and FL1-H on a logarithmic scale. Proliferation was analyzed using the program ModFit LT™ 2.0 (Verity Software House, Topsham, Me., USA). The figures are expressed as the average ±standard error of the mean (SEM) of 5 independent experiments (Student's t test).

[7] = test system: FN1 fibroblasts; assay: Ultrastructure of fibroblasts by transmission electron microscopy (TEM); format: cell-based, human; details: 1% FBS, 50 ng/ml, 48 hours
Text: Severe morphological changes in normal fibroblasts are observed after serum deprivation conditions consistent with those of apoptotic cell death. […] TEM provides ultra-structural evidence about the nature of cell death (Kulkarni, G. V. and C. A. McCulloch, Serum deprivation induces apoptotic cell death in a subset of Balb/c 3T3 fibroblasts. J Cell Sci, 1994. 107 (Pt 5): p. 1169-79).
Cells were washed 3 times with PBS and gently collected in a tube with the help of a cell scraper. The cell suspension was centrifuged, and the cell button re-suspended in a solution of 3% glutaraldehyde and 2% paraformaldehyde diluted in sodium cacodylate. The cell button was post-fixed in 1% solution of osmium tetroxide for 1 hour, washed with PBS and distilled water and dehydrated in a graded ethanol series (30, 60, 70, 80 and 100%). Finally, the epoxy resin was mixed with warm ethanol (1:1) for infiltration, and only the resin was used for the incorporation of cells (60° C./48 h). Ultrathin sections (50 nm) were cut with an ultramicrotome (Leica Ultracut™ UCT) and stained with 5% uranyl acetate in 50% ethanol and 2% aqueous solution of citrate. The obtained sections were photographed using a TEM (LEO™ 906E, Zeiss, […]) at an accelerating voltage of 80 kV.

[8] = test system: FN1 fibroblasts; assay: Cell cycle phases by propidium iodide flow cytometry; format: cell-based, human; details: 48 hours
Description: The distribution of cells in the various cell cycle phases was determined by the content or amount of propidium iodide (PI) incorporated into the cell, measured by flow cytometry (Vindelov, L. L., I. J. Christensen, and N. I. Nissen, Standardization of high-resolution flow cytometric DNA analysis by the simultaneous use of chicken and trout red blood cells as internal reference standards. Cytometry, 1983. 3(5): p. 328-31). […] After treatment, the FN1 cell suspensions were resuspended in 70% ethanol and kept in a freezer at −20° C. for subsequent analysis of cell cycle phases. At the time of the experiment, cells were incubated in a PBS solution: 950 μl of PBS, 40 μl of PI (1 mg/ml) and 10 μl of Rnase: (10 mg/ml), to assess the quantity and integrity of DNA in the cell cycle phases. The results obtained by the acquisition program CellQuest™ acquired on a FACScalibur™ flow cytometer (Becton and Dickson, USA) were analyzed by FACS ModFit™ 2.8. The DNA content was expressed as mean percentage±standard error of the mean (SEM) of 3 independent experiments (Student's t test) of cells distributed in the different cell cycle phases: apoptotic cells, G0/G1, S and G2/M.

[9] = test system: collagen I; assay: Extracellular matrix molecules by fluorescence microscopy; format: cell-based, human; details: FN1 cells, 50 ng/ml, 48 h, 10% FBS
Text: as §1, §2, §3
Mouse monoclonal to Collagen type I [Col-I] (abcam): 1/1000

[10] = 125 μg/ml, 25° C., sodium phosphate buffer, pH 6.0 to 8.0, 24 hours
Description: Measurement of the structural integrity of the peptide was carried out using sodium phosphate buffer at various pH values (6.0, 6.4, 6.8, 7.0, 7.4, 8.0) containing 125 μg/ml of the peptide. Peptide solutions were incubated overnight at room temperature (25° C.). Analyses of circular dichroism (CD) were performed on a J-810 spectropolarimeter controlled by Spectra Manager™ software (JASCO), using cuvettes with optical path length of 0.1 cm (Biotechnology Center—Instituto Butantan). The CD spectra were recorded in the range 183-260 nm every 0.1 nm. The spectrum of each sample was subtracted from the spectrum of the buffer without peptide.

[11] = 25 ng/ml, p<0.05 versus control 1% FBS
[12] = 50 ng/ml, p<0.001 versus control 1% FBS

Sequence: DYFKDGKDVN [LONO-Q]
- ROS generation ([1]; normal cell growth (10% FBS)): no statistically significant decrease in ROS generation
- ROS production [1, 11]: statistically significant decrease of ROS production
- ROS production [1, 12]: statistically significant decrease of ROS production
- production of laminin [2]: increased amounts
- production of fibronectin [3]: increased amounts
- production of vitronectin [4]: increased amounts
- cellular proliferation (MTT), significance ([5]; 10% FBS, 50 ng/ml, p<0.05): statistically significant results
- cell viability (MTT) ([5]; HUVECs, 1% FBS (serum deprivation), dose response): stimulated cell viability in a dose-dependent manner
- cell viability (MTT), significance relative to untreated control (1% FBS) ([5]; HUVECs, 25 ng/ml): statistically significant results
- cell viability (MTT), significance relative to untreated control (1% FBS) ([5]; HUVECs, 50 ng/ml): statistically significant results
- cellular proliferation (MTT) ([5]; normal conditions (10% FBS), dose response): stimulated the cellular proliferation in a dose-dependent manner
- proliferation / cytoprotection (CFDA-SE staining) [6, 11]: significant cytoprotection
- proliferation / cytoprotection (CFDA-SE staining) [6, 12]: significant cytoprotection
- proliferation rate (CFDA-SE staining) ([6]; 25 ng/ml): statistically significant increase in the proliferation rate
- proliferation rate (CFDA-SE staining) ([6]; 50 ng/ml): statistically significant increase in the proliferation rate
- morphological changes induced by serum deprivation (TEM) [7]: retards most of the effects observed in serum deprived cells
- apoptotic cells (fragmented DNA) ([8]; 1% FBS, 50 ng/ml, n=3, mean±SEM, p<0.01 vs. control 1% FBS): 8.1±1.1%
- cells in S phase of the cell cycle ([8]; 1% FBS, 50 ng/ml, n=3, mean±SEM, p<0.05 vs. control 1% FBS): 17.2±1.5%
- S phase of the cell cycle, dose dependence ([8]; 1% FBS, 25 or 50 ng/ml): apparent dose-dependent increase of the S phase
- cells in G2/M ([8]; 10% FBS, 50 ng/ml, n=3, mean±SEM, p<0.05 vs. control 10% FBS): 18.4±2.5%
- production of collagen I [9]: increased amounts
- Stability (circular dichroism) [10]: remains stable
